This assay has as its target IKZF2 (Homo sapiens (Human), UniProt Q96SW2+Q9UKS7). In words: IKZF2 HiBiT Assay (Jurkat-IKZF2-HiBiT cell line). In kind it is cell-based. The settings on record: Jurkat-IKZF2-HiBiT cells, 24 hours; for DC50: read-out: HiBit assay degradation analysis DC50; for Dmax: read-out: HiBit assay degradation analysis Dmax. As for the experimental part:
Degradation of IKZF2 protein is determined by IKZF2 HiBiT assay using the Jurkat-IKZF2-HiBiT (Promega) cell line. Briefly, cells are seeded in culture medium. Compounds are serially diluted in culture medium, and certain volume of the diluted compounds is added to the appropriate well of the plate. After the addition of compounds, the cells are incubated. At the end of treatment, Nano-Glo HiBiT Lytic Detection Reagent (Promega) is added to each well, and then the plates are incubated at room temperature for a certain time period. The luminescent signal is measured using a CALRIOstar plate reader (BMG Labtech). The readings are normalized to the DMSO-treated cells and the IC50 is calculated by nonlinear regression (four parameters sigmoid fitted with variable slope, least squares fit, and no constraint) analysis using the GraphPad Prism 8 software.
Degradation of IKZF2 protein was determined by IKZF2 HiBiT assay using the Jurkat-IKZF2-HiBiT (Promega) cell line. […] Compounds were serially diluted in culture medium, and 20 μl of the diluted compounds were added to the appropriate wells of the plate. After the addition of compounds, the cells were incubated at 37° C. in an atmosphere of 5% CO2 for 24 hours. At the end of treatment, 40 ul of Nano-Glo HiBiT Lytic Detection Reagent (Promega) was added to each well, and then the plates were incubated at room temperature for 10-20 minutes. The luminescent signal was measured using a CALRIOstar plate reader (BMG Labtech). The readings were normalized to the DMSO-treated cells and the IC50 was calculated by nonlinear regression (four parameters sigmoid fitted with variable slope, least squares fit, and no constraint) analysis using the GraphPad Prism 8 software.
Background: The HiBiT peptide binds its large partner to form an active luciferase.

A value given as a limit tells only on which side of the number the result lay.

IKZF2, sequence (Q9UKS7 whole entry): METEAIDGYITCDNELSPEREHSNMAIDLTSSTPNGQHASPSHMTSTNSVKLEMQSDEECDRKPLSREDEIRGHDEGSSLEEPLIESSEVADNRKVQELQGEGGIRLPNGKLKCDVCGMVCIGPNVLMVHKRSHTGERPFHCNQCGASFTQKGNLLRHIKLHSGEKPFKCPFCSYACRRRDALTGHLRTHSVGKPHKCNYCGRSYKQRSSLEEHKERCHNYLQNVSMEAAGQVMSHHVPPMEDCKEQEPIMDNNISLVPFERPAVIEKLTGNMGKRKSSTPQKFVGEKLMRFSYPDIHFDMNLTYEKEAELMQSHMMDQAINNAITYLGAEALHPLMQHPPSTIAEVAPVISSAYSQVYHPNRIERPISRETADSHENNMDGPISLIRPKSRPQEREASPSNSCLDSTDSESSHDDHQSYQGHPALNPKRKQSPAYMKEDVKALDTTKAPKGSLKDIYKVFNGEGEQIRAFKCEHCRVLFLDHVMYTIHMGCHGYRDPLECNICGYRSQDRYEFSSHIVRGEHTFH
IKZF2, sequence (Q96SW2 whole entry): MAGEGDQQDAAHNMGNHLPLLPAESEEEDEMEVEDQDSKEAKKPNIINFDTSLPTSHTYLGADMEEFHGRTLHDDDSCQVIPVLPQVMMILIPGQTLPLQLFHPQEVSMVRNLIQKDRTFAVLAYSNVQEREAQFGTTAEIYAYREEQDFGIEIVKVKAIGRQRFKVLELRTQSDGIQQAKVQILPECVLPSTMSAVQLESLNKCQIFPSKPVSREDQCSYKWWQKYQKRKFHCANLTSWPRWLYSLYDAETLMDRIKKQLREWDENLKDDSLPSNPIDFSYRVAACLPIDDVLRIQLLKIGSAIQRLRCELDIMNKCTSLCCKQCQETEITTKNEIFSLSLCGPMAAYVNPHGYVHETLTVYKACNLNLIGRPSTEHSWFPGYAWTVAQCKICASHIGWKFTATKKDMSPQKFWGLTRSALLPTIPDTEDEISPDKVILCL
IKZF2, sequence (Q16531 whole entry partner): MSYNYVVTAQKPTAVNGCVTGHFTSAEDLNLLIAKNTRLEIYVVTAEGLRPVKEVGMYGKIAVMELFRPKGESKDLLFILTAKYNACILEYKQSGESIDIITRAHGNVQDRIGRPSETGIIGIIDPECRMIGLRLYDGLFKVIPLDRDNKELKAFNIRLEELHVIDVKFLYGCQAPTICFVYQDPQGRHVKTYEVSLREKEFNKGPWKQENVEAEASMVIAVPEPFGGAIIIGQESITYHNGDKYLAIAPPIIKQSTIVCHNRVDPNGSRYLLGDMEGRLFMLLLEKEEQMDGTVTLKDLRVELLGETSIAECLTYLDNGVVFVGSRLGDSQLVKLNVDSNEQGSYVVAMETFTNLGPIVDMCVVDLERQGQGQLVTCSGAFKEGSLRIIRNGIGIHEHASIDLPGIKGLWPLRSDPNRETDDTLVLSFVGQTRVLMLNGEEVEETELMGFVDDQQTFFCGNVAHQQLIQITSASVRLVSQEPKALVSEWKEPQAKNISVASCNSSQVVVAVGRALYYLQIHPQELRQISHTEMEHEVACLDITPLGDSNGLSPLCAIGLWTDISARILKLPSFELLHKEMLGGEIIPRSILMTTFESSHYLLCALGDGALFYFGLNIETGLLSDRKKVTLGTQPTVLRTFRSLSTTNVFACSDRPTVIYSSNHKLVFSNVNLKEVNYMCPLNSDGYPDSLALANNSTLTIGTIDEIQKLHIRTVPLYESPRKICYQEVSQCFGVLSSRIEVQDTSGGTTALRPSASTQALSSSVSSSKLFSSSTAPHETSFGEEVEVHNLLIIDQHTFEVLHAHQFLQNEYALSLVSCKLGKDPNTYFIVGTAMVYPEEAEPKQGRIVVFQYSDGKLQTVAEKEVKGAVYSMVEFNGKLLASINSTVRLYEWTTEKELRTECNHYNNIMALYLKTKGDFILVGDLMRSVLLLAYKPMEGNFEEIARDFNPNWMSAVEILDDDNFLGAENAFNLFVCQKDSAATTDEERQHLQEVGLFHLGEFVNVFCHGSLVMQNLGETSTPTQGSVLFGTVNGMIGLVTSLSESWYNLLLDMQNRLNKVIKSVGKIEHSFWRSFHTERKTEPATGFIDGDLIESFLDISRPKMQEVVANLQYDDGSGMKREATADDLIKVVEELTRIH

The DC50 is the concentration at which degradation of the target reaches its halfway point. By Dmax is commonly meant the greatest extent of degradation seen. For the molecule `O=C1CCC(N2Cc3c(ccc4c3OCC43CCN(Cc4ncnn4-c4ccccc4)CC3)C2=O)C(=O)N1` (centres unmarked) [Compound A254, 3-(6-oxo-1′-((1-phenyl-1H-1,2,4-triazol-5-yl)methyl)-6,8-dihydro-2H,7H-spiro[furo[2,3-e]isoindole-3,4′-piperidin]-7-yl)piperidine-2,6-dione], the DC50 was above 500 nM and the Dmax was below 40%.
`O=C1CCC(N2Cc3c(ccc4c3OCCC43CCN(CC4CCCCC4)CC3)C2=O)C(=O)N1` (centres unmarked) [Compound A14, 3-(1-(cyclohexylmethyl)-7′-oxo-2′,3′,7′,9′-tetrahydro-8′H-spiro[piperidine-4,4′-pyrano[2,3-e]isoindol]-8′-yl)piperidine-2,6-dione]: the DC50 is above 500 nM and the Dmax was below 40%.
For `O=C1CC[C@H](N2Cc3c(ccc4c3OCC43CCN(Cc4cccc(-c5cnn(C[C@@H]6CCO6)c5)c4)CC3)C2=O)C(=O)N1` [Compound A274, (S)-3-(1′-(3-(1-(((S)-oxetan-2-yl)methyl)-1H-pyrazol-4-yl)benzyl)-6-oxo-6,8-dihydro-2H,7H-spiro[furo[2,3-e]isoindole-3,4′-piperidin]-7-yl)piperidine-2,6-dione], in that order: 50 to 200 nM and 60 to 80%.
For `O=C1CCC(N2Cc3c(ccc4c3OCC43CCN(Cc4ccn(-c5cccc(F)c5)n4)CC3)C2=O)C(=O)N1` (centres unmarked) [Compound A316, 3-(1′-((1-(3-fluorophenyl)-1H-pyrazol-3-yl)methyl)-6-oxo-6,8-dihydro-2H,7H-spiro[furo[2,3-e]isoindole-3,4′-piperidin]-7-yl)piperidine-2,6-dione], in that order: above 500 nM and 40 to 60%.
For `CN1CC2(CCN(Cc3cccc(-c4cnn(C)c4)c3)CC2)c2ccc3c(c21)CN(C1CCC(=O)NC1=O)C3=O` (centres unmarked) [Compound A308, 3-(1′-methyl-1-(3-(1-methyl-1H-pyrazol-4-yl)benzyl)-6′-oxo-1′,2′,6′,8′-tetrahydro-7′H-spiro[piperidine-4,3′-pyrrolo[3,4-g]indol]-7′-yl)piperidine-2,6-dione], in that order: above 500 nM and below 40%.
Consider `O=C1CCC(N2Cc3c(ccc4c3OCC43CCN(Cc4ccn(-c5ccc(Cl)cc5)n4)CC3)C2=O)C(=O)N1` (centres unmarked) [Compound A243, 3-(1′-((1-(4-chlorophenyl)-1H-pyrazol-3-yl)methyl)-6-oxo-6,8-dihydro-2H,7H-spiro[furo[2,3-e]isoindole-3,4′-piperidin]-7-yl)piperidine-2,6-dione], for which the DC50 lay in the range of 50 to 200 nM and the maximal degradation (Dmax) was in the range of 60 to 80%.
For `O=C1CCC(N2Cc3c(ccc4c3OCC43CCN(Cc4coc(-c5ccccc5)n4)CC3)C2=O)C(=O)N1` (centres unmarked) [Compound A83, 3-(6-oxo-1′-((2-phenyloxazol-4-yl)methyl)-6,8-dihydro-2H,7H-spiro[furo[2,3-e]isoindole-3,4′-piperidin]-7-yl)piperidine-2,6-dione], in that order: above 500 nM and below 40%.
For `Cn1cc2cc(CN3CCC4(CC3)COc3c4ccc4c3CN(C3CCC(=O)NC3=O)C4=O)ccc2n1` (centres unmarked) [Compound A68, 3-(1′-((2-methyl-2H-indazol-5-yl)methyl)-6-oxo-6,8-dihydro-2H,7H-spiro[furo[2,3-e]isoindole-3,4′-piperidin]-7-yl)piperidine-2,6-dione], in that order: above 500 nM and 40 to 60%.
For `O=C1CCC(N2Cc3c(ccc4c3OCC43CCN(Cc4ncccn4)CC3)C2=O)C(=O)N1` (centres unmarked) [Compound A206, 3-(6-oxo-1′-(pyrimidin-2-ylmethyl)-6,8-dihydro-2H,7H-spiro[furo[2,3-e]isoindole-3,4′-piperidin]-7-yl)piperidine-2,6-dione], in that order: above 500 nM and below 40%.
Regarding `O=C1CC[C@H](N2Cc3c(ccc4c3OCC43CCN(Cc4cnn(S(=O)(=O)c5ccccc5F)c4)CC3)C2=O)C(=O)N1` [Compound A355, (S)-3-(1′-((1-((2-fluorophenyl)sulfonyl)-1H-pyrazol-4-yl)methyl)-6-oxo-6,8-dihydro-2H,7H-spiro[furo[2,3-e]isoindole-3,4′-piperidin]-7-yl)piperidine-2,6-dione], the “HiBit assay degradation analysis Dmax” value is “C (“C” >=40% and <60%)”; the DC50 fell in the range of 200 to 500 nM.
Turning to `COc1cccc(CN2CCC3(CC2)COc2c3ccc3c2CN(C2CCC(=O)NC2=O)C3=O)c1` (centres unmarked) [Compound A212, 3-(1′-(3-methoxybenzyl)-6-oxo-6,8-dihydro-2H,7H-spiro[furo[2,3-e]isoindole-3,4′-piperidin]-7-yl)piperidine-2,6-dione], the DC50 was above 500 nM and the Dmax fell in the range of 40 to 60%.
The corresponding values for `O=C1CCC(N2Cc3c(ccc4c3OCC43CCN(Cc4cnn(Cc5ccccc5)c4)CC3)C2=O)C(=O)N1` (centres unmarked) [Compound A209, 3-(1′-((1-benzyl-1H-pyrazol-4-yl)methyl)-6-oxo-6,8-dihydro-2H,7H-spiro[furo[2,3-e]isoindole-3,4′-piperidin]-7-yl)piperidine-2,6-dione] are below 50 nM and 60 to 80%.
Turning to `Cn1cc(-c2ccc(CN3CCC4(CC3)COc3c4ccc4c3CN(C3CCC(=O)NC3=O)C4=O)s2)cn1` (centres unmarked) [Compound A190, 3-(1′-((5-(1-methyl-1H-pyrazol-4-yl)thiophen-2-yl)methyl)-6-oxo-6,8-dihydro-2H,7H-spiro[furo[2,3-e]isoindole-3,4′-piperidin]-7-yl)piperidine-2,6-dione], the DC50 is above 500 nM and the Dmax was 40 to 60%.
The corresponding values for `O=C1CCC(N2Cc3c(ccc4c3OCC43CCN(Cc4ccc(F)c5ccoc45)CC3)C2=O)C(=O)N1` (centres unmarked) [Compound A118, 3-(1′-((4-fluorobenzofuran-7-yl)methyl)-6-oxo-6,8-dihydro-2H,7H-spiro[furo[2,3-e]isoindole-3,4′-piperidin]-7-yl)piperidine-2,6-dione] are above 500 nM and 40 to 60%.
In the case of `O=C1CCC(N2Cc3c(ccc4c3OCC43CCN(Cc4cccc(Br)c4)CC3)C2=O)C(=O)N1` (centres unmarked) [Compound A91, 3-(1′-(3-bromobenzyl)-6-oxo-6,8-dihydro-2H,7H-spiro[furo[2,3-e]isoindole-3,4′-piperidin]-7-yl)piperidine-2,6-dione], the DC50 was below 50 nM and the Dmax is 60 to 80%.
The corresponding values for `N#CCc1ccc(CN2CCC3(CC2)COc2c3ccc3c2CN(C2CCC(=O)NC2=O)C3=O)cc1` (centres unmarked) [Compound A196, 2-(4-((7-(2,6-dioxopiperidin-3-yl)-6-oxo-7,8-dihydro-2H,6H-spiro[furo[2,3-e]isoindole-3,4′-piperidin]-1′-yl)methyl)phenyl)acetonitrile] are 50 to 200 nM and 60 to 80%.
The corresponding values for `CC1(Cn2cc(CN3CCC4(CC3)COc3c4ccc4c3CN(C3CCC(=O)NC3=O)C4=O)cn2)COC1` (centres unmarked) [Compound A320, 3-(1′-((1-((3-methyloxetan-3-yl)methyl)-1H-pyrazol-4-yl)methyl)-6-oxo-6,8-dihydro-2H,7H-spiro[furo[2,3-e]isoindole-3,4′-piperidin]-7-yl)piperidine-2,6-dione] are above 500 nM and 40 to 60%.
For `O=C1CC[C@H](N2Cc3c(ccc4c3OCC43CCN(Cc4ccc5c(c4)NC(=O)CC5)CC3)C2=O)C(=O)N1` [Compound A303, 3-(6-oxo-1′-((2-oxo-1,2,3,4-tetrahydroquinolin-7-yl)methyl)-6,8-dihydro-2H,7H-spiro[furo[2,3-e]isoindole-3,4′-piperidin]-7-yl)piperidine-2,6-dione], in that order: 200 to 500 nM and 60 to 80%.
For the molecule `O=C1CCC(N2Cc3c(ccc4c3OCC43CCN(Cc4cccc(OCc5ccccn5)c4)CC3)C2=O)C(=O)N1` (centres unmarked) [Compound A135, 3-(6-oxo-1′-(3-(pyridin-2-ylmethoxy)benzyl)-6,8-dihydro-2H,7H-spiro[furo[2,3-e]isoindole-3,4′-piperidin]-7-yl)piperidine-2,6-dione], the DC50 is below 50 nM and the Dmax lay in the range of 60 to 80%.
The corresponding values for `O=C1CCC(N2Cc3c(ccc4c3OCC43CCN(Cc4cccc5c4OCC5)CC3)C2=O)C(=O)N1` (centres unmarked) [Compound A224, 3-(1′-((2,3-dihydrobenzofuran-7-yl)methyl)-6-oxo-6,8-dihydro-2H,7H-spiro[furo[2,3-e]isoindole-3,4′-piperidin]-7-yl)piperidine-2,6-dione] are 200 to 500 nM and 40 to 60%.
For `O=C1CCC(N2Cc3c(ccc4c3OCC43CCN(Cc4ccn5ccnc5c4)CC3)C2=O)C(=O)N1` (centres unmarked) [Compound A78], in that order: 200 to 500 nM and 40 to 60%.
The corresponding values for `Cc1cccc(CN2CCC3(CC2)COc2c3ccc3c2CN(C2CCC(=O)NC2=O)C3=O)c1` (centres unmarked) [Compound A213, 3-(1′-(3-methylbenzyl)-6-oxo-6,8-dihydro-2H,7H-spiro[furo[2,3-e]isoindole-3,4′-piperidin]-7-yl)piperidine-2,6-dione] are below 50 nM and 60 to 80%.

For the origin of these results see US20250215012A1, “IKZF2 DEGRADERS AND USES THEREOF” (REGENTS OF THE UNIVERSITY OF MICHIGAN, priority 2022, published 2025).
